Assay results published in the supplement of paper PMC5412046.
Structures can show the parent of a compound that is named as a salt.

Assays:
SB.mhdgc-1 = assay: AC50 for growth inhibition (viability) (log10 M); higher = less potent; settings: SB.mhdgc-1 (hereditary c.1380delA CDH1 gastric cancer)
In short: (§1)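 In 1536-well plates, each well held 500 patient-derived gastric cancer cells (hereditary or sporadic) in 5 μL medium. Compound in DMSO, 23 nL per well, was pinned in 11 threefold dilutions starting at a final 46 μM. Following 48 h of exposure, cells had CellTiter-Glo for 30 min at room temperature before ViewLux luminescence reading. Only high-quality curve classes from four-parameter fits of DMSO-normalised viability gave the log half-maximal activity concentration.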

SB.msgc-1 = assay: as above; settings: SB.msgc-1 (sporadic gastric cancer)
In short: as §1

O=C1c2ccccc2-[n+]2ccc3c([nH]c4ccccc43)c21 [Fascaplysin]
AC50 for growth inhibition (log10 M) (SB.mhdgc-1): -5.93
AC50 for growth inhibition (log10 M) (SB.msgc-1): -6.18

Nc1nnc(-c2cccc(Cl)c2Cl)c(N)n1 [Lamotrigine]
AC50 for growth inhibition (log10 M) (SB.mhdgc-1): -4.53
AC50 for growth inhibition (log10 M) (SB.msgc-1): -4.63

N#C[C@H](O[C@@H]1O[C@H](CO[C@@H]2O[C@H](CO)[C@@H](O)[C@H](O)[C@H]2O)[C@@H](O)[C@H](O)[C@H]1O)c1ccccc1 [Amygdalin]
AC50 for growth inhibition (log10 M) (SB.mhdgc-1): -4.73
AC50 for growth inhibition (log10 M) (SB.msgc-1): -4.68

C=CCNC1=C2C[C@@H](C)C[C@H](OC)[C@H](O)[C@@H](C)/C=C(\C)[C@H](OC(N)=O)[C@@H](OC)/C=C\C=C(/C)C(=O)NC(=CC1=O)C2=O [Tanespimycin]
AC50 for growth inhibition (log10 M) (SB.mhdgc-1): -7.28
AC50 for growth inhibition (log10 M) (SB.msgc-1): -7.53

CCNC(=O)Nc1ccc2ncc(Nc3ccc(C)cc3)nc2n1
AC50 for growth inhibition (log10 M) (SB.mhdgc-1): -7.43
AC50 for growth inhibition (log10 M) (SB.msgc-1): -6.43

Cc1ccc([N+](=O)[O-])cc1[S+](=O)([O-])N(C)/N=C/c1cnc2ccc(Br)cn12 [PIK-75]
AC50 for growth inhibition (log10 M) (SB.mhdgc-1): -8.03
AC50 for growth inhibition (log10 M) (SB.msgc-1): -7.98

Cc1ccc(-c2ncn(-c3ccc(Nc4nccc(-c5cccc(N6CCOCC6)c5)n4)cc3)n2)cn1 [SR-3306]
AC50 for growth inhibition (log10 M) (SB.mhdgc-1): -6.18
AC50 for growth inhibition (log10 M) (SB.msgc-1): -7.13

COc1ccccc1[C@H](c1cccc2ccccc12)[C@@](C)(C#N)C(=O)N1CCC(c2cccc(C(F)(F)F)c2)CC1
AC50 for growth inhibition (log10 M) (SB.mhdgc-1): -5.18
AC50 for growth inhibition (log10 M) (SB.msgc-1): -5.48

Nc1nc(F)nc2c1ncn2[C@@H]1O[C@H](COP(=O)(O)O)[C@@H](O)[C@@H]1O [Fludarabine phosphate]
AC50 for growth inhibition (log10 M) (SB.mhdgc-1): -5.13
AC50 for growth inhibition (log10 M) (SB.msgc-1): -4.98

CN1C(=O)\C(=C/C(=C1/NC2=C(F)C=C(I)C=C2)C(=O)NOCCO)C [AZD-8330]
AC50 for growth inhibition (log10 M) (SB.mhdgc-1): -4.78
AC50 for growth inhibition (log10 M) (SB.msgc-1): -7.58

CN1CCC(CC1)COC2=CN=C(N=C2)C3=CC(=CC=C3)CN4/N=C(\C=C/C4=O)C5=CC(=CC=C5)C#N
AC50 for growth inhibition (log10 M) (SB.mhdgc-1): -7.48
AC50 for growth inhibition (log10 M) (SB.msgc-1): -6.78

Cc1c(Cn2c(C)nc3c(C(=O)O)cc(N4CCOCC4)cc32)cccc1C(F)(F)F
AC50 for growth inhibition (log10 M) (SB.mhdgc-1): -7.48
AC50 for growth inhibition (log10 M) (SB.msgc-1): -5.88

ClC1=CC=C(CCCOC/2=N/NC(=O)C(=C2NCC3=CN=CC=C3)/Br)C=C1 [Parogrelil]
AC50 for growth inhibition (log10 M) (SB.mhdgc-1): -5.13
AC50 for growth inhibition (log10 M) (SB.msgc-1): -4.83

CC(C)C[C@H](NC(=O)CNC(=O)c1cc(Cl)ccc1Cl)B(O)O [Ixazomib]
AC50 for growth inhibition (log10 M) (SB.mhdgc-1): -6.63
AC50 for growth inhibition (log10 M) (SB.msgc-1): -7.03

ClC1=CC\2=C(OC3=C(C=CC=C3)\N=C2N4CCNCC4)C=C1 [Amoxapine]
AC50 for growth inhibition (log10 M) (SB.mhdgc-1): -4.63
AC50 for growth inhibition (log10 M) (SB.msgc-1): -4.78

COc1cc2ncnc(Nc3cccc(Cl)c3)c2cc1OC [AG-1478]
AC50 for growth inhibition (log10 M) (SB.mhdgc-1): -7.43
AC50 for growth inhibition (log10 M) (SB.msgc-1): -6.23

CCOC(=O)N1CCN(/[N+]([O-])=N/Oc2ccc([N+](=O)[O-])cc2C#N)CC1 [JS-59-4]
AC50 for growth inhibition (log10 M) (SB.mhdgc-1): -4.78
AC50 for growth inhibition (log10 M) (SB.msgc-1): -5.13

CCNC(=O)C[C@@H]1\N=C(C2=CC=C(Cl)C=C2)/C3=C(C=CC(=C3)OC)[N]4C(=NN=C14)C [I-BET762]
AC50 for growth inhibition (log10 M) (SB.mhdgc-1): -6.08
AC50 for growth inhibition (log10 M) (SB.msgc-1): -5.63

Cl.Cl.Cl.O[C@@H](COc1cccc2ncccc12)CN1CCN([C@@H]2c3ccccc3[C@@H]3[C@H](c4ccccc42)C3(F)F)CC1 [Zosuquidar trihydrochloride]
AC50 for growth inhibition (log10 M) (SB.mhdgc-1): -4.93
AC50 for growth inhibition (log10 M) (SB.msgc-1): -5.28

NC/1=N/C(=O)C2=C(N1)[N](C=N2)[C@@H]3C[C@H](O)[C@@H](CO)C3=C [Entecavir]
AC50 for growth inhibition (log10 M) (SB.mhdgc-1): -4.78
AC50 for growth inhibition (log10 M) (SB.msgc-1): -5.28

C[C@]12CC[C@@H]3c4ccc(O)cc4CC[C@H]3[C@@H]1CC[C@@H]2O [Estradiol]
AC50 for growth inhibition (log10 M) (SB.mhdgc-1): -5.28
AC50 for growth inhibition (log10 M) (SB.msgc-1): -4.93

OC[C@H]1OC(OC2=CC3=C(C(=C2)O)C(=O)\C(=C/O3)C4=CC=C(O)C=C4)[C@H](O)[C@@H](O)[C@@H]1O (stereo not given in full) [Genistin]
AC50 for growth inhibition (log10 M) (SB.mhdgc-1): -5.78
AC50 for growth inhibition (log10 M) (SB.msgc-1): -6.33

C#Cc1cccc(Nc2ncnc3cc(OCCOC)c(OCCOC)cc23)c1 [Erlotinib hydrochloride]
AC50 for growth inhibition (log10 M) (SB.mhdgc-1): -6.38
AC50 for growth inhibition (log10 M) (SB.msgc-1): -5.63

COC1=CC(=CC(=C1)C2=CC=C3N=CC\4=C(N(C(=O)\C=C4)C5=CC(=C(C=C5)N6CCNCC6)C(F)(F)F)C3=C2)OC
AC50 for growth inhibition (log10 M) (SB.mhdgc-1): -5.33
AC50 for growth inhibition (log10 M) (SB.msgc-1): -5.43

C[C@H](NC(=O)/C(C#N)=C/c1cccc(Br)n1)c1ccccc1 [WP-1066]
AC50 for growth inhibition (log10 M) (SB.mhdgc-1): -5.43
AC50 for growth inhibition (log10 M) (SB.msgc-1): -5.48

C[N]1C=C(C2=C1C=CC=C2)\C3=C(\C(=O)NC3=O)C4=C5CC(CN)CC[N]5C6=C4C=CC=C6 (stereo not given) [Ro-31-8425]
AC50 for growth inhibition (log10 M) (SB.mhdgc-1): -4.88
AC50 for growth inhibition (log10 M) (SB.msgc-1): -4.78

CO[C@@H]1[C@H](N(C)C(=O)c2ccccc2)C[C@H]2O[C@]1(C)n1c3ccccc3c3c4c(c5c6ccccc6n2c5c31)C(=O)NC4 [Midostaurin]
AC50 for growth inhibition (log10 M) (SB.mhdgc-1): -5.63
AC50 for growth inhibition (log10 M) (SB.msgc-1): -5.38

COC1=CC=C(C(=C1)OC(C)C)C/2=N/[C@@H]([C@@H](N2C(=O)N3CCNC(=O)C3)C4=CC=C(Cl)C=C4)C5=CC=C(Cl)C=C5 [Nutlin-3]
AC50 for growth inhibition (log10 M) (SB.mhdgc-1): -5.93
AC50 for growth inhibition (log10 M) (SB.msgc-1): -4.78

CN(C1CCc2c(c3ccccc3n2CC(=O)O)C1)[S+](=O)([O-])c1ccc(F)cc1 (stereo not given)
AC50 for growth inhibition (log10 M) (SB.mhdgc-1): -5.03
AC50 for growth inhibition (log10 M) (SB.msgc-1): -4.73

CC(C)Oc1ccc(C(=O)N[C@H](CNC(=O)CN(C)C)Cc2ccc(-c3cn4cccc([C@H](C)O)c4n3)cc2)cc1Cl
AC50 for growth inhibition (log10 M) (SB.mhdgc-1): -5.18
AC50 for growth inhibition (log10 M) (SB.msgc-1): -6.63

NC(CO)(CO)CCc1ccc(Sc2cccc(OCc3ccccc3)c2)cc1Cl [KRP 203]
AC50 for growth inhibition (log10 M) (SB.mhdgc-1): -5.03
AC50 for growth inhibition (log10 M) (SB.msgc-1): -4.58

Oc1cccc(-c2nc(N3CCOCC3)c3oc4ncccc4c3n2)c1 [PI-103]
AC50 for growth inhibition (log10 M) (SB.mhdgc-1): -6.12
AC50 for growth inhibition (log10 M) (SB.msgc-1): -4.92

CC(C)OC(=O)OCOP(=O)(CO[C@H](C)Cn1cnc2c(N)ncnc21)OCOC(=O)OC(C)C.O=C(O)C=CC(=O)O [Tenofovir Disoproxil Fumarate]
AC50 for growth inhibition (log10 M) (SB.mhdgc-1): -4.68
AC50 for growth inhibition (log10 M) (SB.msgc-1): -4.78

CC(C)(C)c1[nH]cnc1/C=c1\[nH]c(=O)/c(=C/c2ccccc2)[nH]c1=O [Plinabulin]
AC50 for growth inhibition (log10 M) (SB.mhdgc-1): -7.62
AC50 for growth inhibition (log10 M) (SB.msgc-1): -6.07

C[C@@]12C(=O)OC(=O)[C@@]1(C)C1CCC2O1 [Cantharidin]
AC50 for growth inhibition (log10 M) (SB.mhdgc-1): -5.28
AC50 for growth inhibition (log10 M) (SB.msgc-1): -5.53

Nc1ncnc2c1nc(Cl)n2[C@@H]1O[C@H](CO)[C@@H](O)[C@H]1O [8-Cl-Ado]
AC50 for growth inhibition (log10 M) (SB.mhdgc-1): -4.78
AC50 for growth inhibition (log10 M) (SB.msgc-1): -4.68

c1cc(-c2cnn3cc(-c4ccc(OCCN5CCCCC5)cc4)cnc23)ccn1 [Dorsomorphin]
AC50 for growth inhibition (log10 M) (SB.mhdgc-1): -4.83
AC50 for growth inhibition (log10 M) (SB.msgc-1): -4.78

C[C@@H]1C[C@H]2[C@@H]3\C=C(C)/C4=C/C5=C(C[C@]4(C)[C@H]3[C@@H](O)C[C@]2(C)[C@@]1(O)C(=O)COC(C)=O)C=N[N]5C6=CC=CC=C6 [Cortivazol]
AC50 for growth inhibition (log10 M) (SB.mhdgc-1): -5.53
AC50 for growth inhibition (log10 M) (SB.msgc-1): -5.58

CCC(c1ccc(O)cc1)C(CC)c1ccc(O)cc1 (stereo not given) [Hexestrol]
AC50 for growth inhibition (log10 M) (SB.mhdgc-1): -5.88
AC50 for growth inhibition (log10 M) (SB.msgc-1): -5.88

C=CC(=O)Nc1cccc(Oc2nc(Nc3ccc(N4CCN(C)CC4)cc3OC)ncc2Cl)c1 [WZ-4002]
AC50 for growth inhibition (log10 M) (SB.mhdgc-1): -4.83
AC50 for growth inhibition (log10 M) (SB.msgc-1): -7.78

CNC(=O)c1nn(C)c2c1C(C)(C)Cc1cnc(Nc3ccc(N4CCN(C)CC4)cc3)nc1-2 [Milciclib]
AC50 for growth inhibition (log10 M) (SB.mhdgc-1): -5.93
AC50 for growth inhibition (log10 M) (SB.msgc-1): -5.88

CNC1CCC(N(Cc2cccc(-c3ccncc3)c2)C(=O)c2sc3c(F)ccc(F)c3c2Cl)CC1 (stereo not given) [Hh-Ag1.5]
AC50 for growth inhibition (log10 M) (SB.mhdgc-1): -4.73
AC50 for growth inhibition (log10 M) (SB.msgc-1): -4.83

Cc1c(C(=O)NN2CCCCC2)nn(-c2ccc(Cl)cc2Cl)c1-c1ccc(Cl)cc1 [Rimonabant]
AC50 for growth inhibition (log10 M) (SB.mhdgc-1): -4.78
AC50 for growth inhibition (log10 M) (SB.msgc-1): -4.63

CC(C)=CC[C@@H](O)C/1=C/C(=O)C2=C(O)C=CC(=C2C1=O)O [Shikonin]
AC50 for growth inhibition (log10 M) (SB.mhdgc-1): -6.13
AC50 for growth inhibition (log10 M) (SB.msgc-1): -5.83

COC(=O)Nc1nc2cc(Sc3ccccc3)ccc2[nH]1 [Fenbendazole]
AC50 for growth inhibition (log10 M) (SB.mhdgc-1): -6.63
AC50 for growth inhibition (log10 M) (SB.msgc-1): -5.53
